Laboratory results taken from ChEMBL document CHEMBL4219090, “Synthesis and biological evaluation of polyhydroxylated oxindole derivatives as potential antileishmanial agent” (Bioorg Med Chem Lett, 2018).
Active and inactive are the calls of the source. The calls are words filed in the database; no cut-off is given here.

Tests used:
[1] = system: Leishmania donovani; test: Antileishmanial activity against Leishmania donovani MHOM/IN/1983/AG83 promastigotes transformed from splenic intracellular amastigotes of infected BALB/c mouse after 48 hrs by MTT assay; format: functional, organism-based; conditions: MHOM/IN/1983/AG83, 48 h
[2] = system: Leishmania donovani; test: Antileishmanial activity against Leishmania donovani MHOM/IN/1983/AG83 promastigotes transformed from splenic intracellular amastigotes of infected BALB/c mouse assessed as parasite survival at 16 uM after 48 hrs by MTT assay (reference value: 100%); format: functional; conditions: MHOM/IN/1983/AG83, 48 h
[3] = system: Leishmania donovani; test: Antileishmanial activity against Leishmania donovani MHOM/IN/1983/AG83 promastigotes transformed from splenic intracellular amastigotes of infected BALB/c mouse assessed as parasite survival at 8 uM after 48 hrs by MTT assay (reference value: 100%); format: functional; conditions: MHOM/IN/1983/AG83, 48 h
[4] = system: Leishmania donovani; test: Antileishmanial activity against Leishmania donovani MHOM/IN/1983/AG83 promastigotes transformed from splenic intracellular amastigotes of infected BALB/c mouse assessed as parasite survival at 32 uM after 48 hrs by MTT assay (reference value: 100%); format: functional; conditions: MHOM/IN/1983/AG83, 48 h
[5] = system: Leishmania donovani; test: Antileishmanial activity against Leishmania donovani MHOM/IN/1983/AG83 promastigotes transformed from splenic intracellular amastigotes of infected BALB/c mouse after 48 hrs by […]; format: functional, organism-based; conditions: MHOM/IN/1983/AG83, 48 h
[6] = system: Leishmania donovani; test: Induction of ROS generation in Leishmania donovani MHOM/IN/1983/AG83 promastigotes transformed from splenic intracellular amastigotes of infected BALB/c mouse at IC50 measured at 6 hrs by H2DCFDA probe-based flow cytometric analysis relative to control; format: functional
[7] = system: Leishmania donovani; test: (§1) Cell cycle arrest in Leishmania donovani MHOM/IN/1983/AG83 promastigotes transformed from splenic intracellular amastigotes of infected BALB/c mouse assessed as accumulation at G0/G1 phase at IC50 after 48 hrs by propidium iodide staining-based flow cytometric analysis (reference value: 81.06%); format: functional
[8] = system: Leishmania donovani; test: Antileishmanial activity against Leishmania donovani MHOM/IN/1983/AG83 promastigotes transformed from splenic intracellular amastigotes of infected BALB/c mouse assessed as parasite survival at 128 uM after 48 hrs by MTT assay (reference value: 100%); format: functional; conditions: MHOM/IN/1983/AG83, 48 h
[9] = system: Leishmania donovani; test: (§2) Induction of apoptosis in Leishmania donovani MHOM/IN/1983/AG83 promastigotes transformed from splenic intracellular amastigotes of infected BALB/c mouse assessed as necrotic cells at 15 uM after 48 hrs by Annexin V-PE/7-AAD staining-based flow cytometric analysis (reference value: 1.51%); format: functional
[10] = system: Leishmania donovani; test: Induction of apoptosis in Leishmania donovani MHOM/IN/1983/AG83 promastigotes transformed from splenic intracellular amastigotes of infected BALB/c mouse assessed as viable cells at 15 uM after 24 hrs by Annexin V-PE/7-AAD staining-based flow cytometric analysis relative to control; format: functional
[11] = system: Leishmania donovani; test: as §2, with “late apoptotic” for “necrotic”, “2.55 +/- 0.49%)” for “1.51%)”; format: functional
[12] = Cytotoxicity against PHA-stimulated mouse splenocytes assessed as cell survival at 128 uM after 96 hrs by MTT assay (reference value: 100%); format: cell-based, Splenocyte; conditions: read-out: Survival
[13] = system: Leishmania donovani; test: Induction of ROS generation in Leishmania donovani MHOM/IN/1983/AG83 promastigotes transformed from splenic intracellular amastigotes of infected BALB/c mouse at IC50 by H2DCFDA probe-based flow cytometric analysis; format: functional, organism-based; conditions: TDE = time-dependent effect
[14] = Cytotoxicity against PHA-stimulated mouse splenocytes assessed as cell survival at 16 uM after 96 hrs by MTT assay (reference value: 100%); format: cell-based, Splenocyte; conditions: read-out: Survival
[15] = system: Leishmania donovani; test: Induction of apoptosis in Leishmania donovani MHOM/IN/1983/AG83 promastigotes transformed from splenic intracellular amastigotes of infected BALB/c mouse assessed as early apoptotic cells at 15 uM by Annexin V-PE/7-AAD staining-based flow cytometric analysis; format: functional, organism-based; conditions: TDE = time-dependent effect
[16] = system: Leishmania donovani; test: Induction of apoptosis in Leishmania donovani MHOM/IN/1983/AG83 promastigotes transformed from splenic intracellular amastigotes of infected BALB/c mouse assessed as early apoptotic cells at 15 uM after 24 hrs by Annexin V-PE/7-AAD staining-based flow cytometric analysis relative to control; format: functional
[17] = system: Leishmania donovani; test: as §1, with “sub-G0/G1” for “G0/G1”, “2.61 +/- 0.33%)” for “81.06%)”; format: functional
[18] = system: Leishmania donovani; test: Antileishmanial activity against Leishmania donovani MHOM/IN/1983/AG83 amastigotes infected in BALB/c mouse peritoneal macrophages at 1 uM after 48 hrs by phase contrast microscopic analysis relative to control; format: functional
[19] = system: Leishmania donovani; test: Induction of apoptosis in Leishmania donovani MHOM/IN/1983/AG83 promastigotes transformed from splenic intracellular amastigotes of infected BALB/c mouse assessed as viable cells at 15 uM after 48 hrs by Annexin V-PE/7-AAD staining-based flow cytometric analysis (reference value: 84.97%); format: functional
[20] = Cytotoxicity against PHA-stimulated mouse splenocytes assessed as cell survival at 32 uM after 96 hrs by MTT assay (reference value: 100%); format: cell-based, Splenocyte; conditions: read-out: Survival
[21] = system: Leishmania donovani; test: Induction of apoptosis in Leishmania donovani MHOM/IN/1983/AG83 promastigotes transformed from splenic intracellular amastigotes of infected BALB/c mouse assessed as late apoptotic cells at 15 uM after 24 hrs by Annexin V-PE/7-AAD staining-based flow cytometric analysis relative to control; format: functional
[22] = system: Leishmania donovani; test: as §1, with “sub-G0/G1” for “G0/G1”, “24” for “48”, “2.61 +/- 0.33%)” for “81.06%)”; format: functional
[23] = system: Leishmania donovani; test: Induction of apoptosis in Leishmania donovani MHOM/IN/1983/AG83 promastigotes transformed from splenic intracellular amastigotes of infected BALB/c mouse assessed as accumulation of lipid droplets in cytoplasm after 48 hrs by Nile red staining-based confocal laser scanning microscopic analysis; format: functional, organism-based
[24] = Cytotoxicity against PHA-stimulated mouse splenocytes assessed as cell survival at 64 uM after 96 hrs by MTT assay (reference value: 100%); format: cell-based, Splenocyte; conditions: read-out: Survival
[25] = system: Leishmania donovani; test: Induction of nitric oxide generation in Leishmania donovani MHOM/IN/1983/AG83 amastigotes infected in BALB/c mouse peritoneal macrophages at IC50 by Griess reagent based analysis relative to control; format: functional
[26] = system: Leishmania donovani; test: Cell cycle arrest in Leishmania donovani MHOM/IN/1983/AG83 promastigotes transformed from splenic intracellular amastigotes of infected BALB/c mouse assessed as accumulation at sub-G0/G1 phase at IC50 by propidium iodide staining-based flow cytometric analysis; format: functional, organism-based; conditions: TDE = time-dependent effect
[27] = Cytotoxicity against PHA-stimulated mouse splenocytes assessed as cell survival at 8 uM after 96 hrs by MTT assay (reference value: 100%); format: cell-based, Splenocyte; conditions: read-out: Survival
[28] = system: Leishmania donovani; test: Induction of apoptosis in Leishmania donovani MHOM/IN/1983/AG83 promastigotes transformed from splenic intracellular amastigotes of infected BALB/c mouse assessed as chromatin condensation after 48 hrs by DAPI staining-based confocal laser scanning microscopic analysis; format: functional, organism-based
[29] = system: Leishmania donovani; test: Induction of apoptosis in Leishmania donovani MHOM/IN/1983/AG83 promastigotes transformed from splenic intracellular amastigotes of infected BALB/c mouse assessed as necrotic cells at 15 uM after 24 hrs by Annexin V-PE/7-AAD staining-based flow cytometric analysis relative to control; format: functional
[30] = system: Leishmania donovani; test: Induction of apoptosis in Leishmania donovani MHOM/IN/1983/AG83 promastigotes transformed from splenic intracellular amastigotes of infected BALB/c mouse assessed as nuclei blebbing after 48 hrs by DAPI staining-based confocal laser scanning microscopic analysis; format: functional, organism-based
[31] = system: Leishmania donovani; test: Induction of apoptosis in Leishmania donovani MHOM/IN/1983/AG83 promastigotes transformed from splenic intracellular amastigotes of infected BALB/c mouse assessed as late apoptotic cells at 15 uM by Annexin V-PE/7-AAD staining-based flow cytometric analysis; format: functional, organism-based; conditions: TDE = time-dependent effect
[32] = system: Leishmania donovani; test: Antileishmanial activity against Leishmania donovani MHOM/IN/1983/AG83 promastigotes transformed from splenic intracellular amastigotes of infected BALB/c mouse assessed as parasite survival at 64 uM after 48 hrs by MTT assay (reference value: 100%); format: functional; conditions: MHOM/IN/1983/AG83, 48 h
[33] = system: Leishmania donovani; test: as §2, with “early apoptotic” for “necrotic”, “10.98 +/- 1.22%)” for “1.51%)”; format: functional

## COc1ccc(CN2C(=O)C(=C(c3ccc(O)cc3)c3ccc(O)cc3)c3cc(/C=C/c4ccc(OC)c(OC)c4)ccc32)cc1
[1]
  IC50: 31 µM
[2]
  survival at 16 µM: 70.6%
[3]
  survival at 8 µM: 79.2%
[4]
  survival at 32 µM: 53.7%

## COc1ccc(CN2C(=O)C(=C(c3ccc(O)cc3)c3ccc(O)cc3)c3cc(/C=C/c4ccc(F)c(F)c4)ccc32)cc1
[1]
  IC50: 220 µM
[2]
  survival at 16 µM: 96%
[3]
  survival at 8 µM: 97.5%
[4]
  survival at 32 µM: 93.2%

## CCCCCCCCCCCCCCCCOP(=O)([O-])OCC[N+](C)(C)C [MILTEFOSINE]
[1]
  IC50: 21 µM
[5]
  IC50: 21 µM

## O=C1C(=C(c2ccc(O)cc2)c2ccc(O)cc2)c2cc(/C=C/c3ccc(O)c(O)c3)ccc2N1Cc1ccc(O)cc1
[6]
  fold change (FC): >3
[7]
  Activity: 71.37%
[8]
  survival at 128 µM: 5.42%
[9]
  Activity: 4.09%
[10]
  Activity: 45.2%
[1]
  IC50: 15 µM
[11]
  Activity: 15.39%
[12]
  viability at 96 h, 128 µM: 85.2%
[13]
  Activity: Tde
[14]
  viability at 96 h, 16 µM: 92.3%
[15]
  Activity: Tde
[2]
  survival at 16 µM: 46.7%
[16]
  Activity: 35.01%
[17]
  Activity: 8.86%
[18]
  Activity: 50%
[19]
  Activity: 38.43%
[20]
  viability at 96 h, 32 µM: 90.5%
[3]
  survival at 8 µM: 96.2%
[21]
  Activity: 14.76%
[22]
  Activity: 6.79 - 6.97%
[23]
  Activity: Active
[24]
  viability at 96 h, 64 µM: 87.3%
[25]
  fold change (FC): 3
[26]
  Activity: Tde
[27]
  viability at 96 h, 8 µM: 96.6%
[28]
  Activity: Active
[29]
  Activity: 5.03%
[30]
  Activity: Active
[31]
  Activity: Tde
[32]
  survival at 64 µM: 17.9%
[33]
  Activity: 42.08%
[4]
  survival at 32 µM: 31.6%

## O=C1C(=C(c2ccc(O)cc2)c2ccc(O)cc2)c2ccccc2N1Cc1ccc(O)cc1
[1]
  IC50: 200 µM
[2]
  survival at 16 µM: 96.7%
[3]
  survival at 8 µM: 98.3%
[4]
  survival at 32 µM: 92%

## COc1ccc(CN2C(=O)C(=C(c3ccc(O)cc3)c3ccc(O)cc3)c3cc(/C=C/c4ccc(C)c(C)c4)ccc32)cc1
[1]
  IC50: 225 µM
[2]
  survival at 16 µM: 95.5%
[3]
  survival at 8 µM: 97.2%
[4]
  survival at 32 µM: 93.7%

## COc1ccc(CN2C(=O)C(=C(c3ccc(O)cc3)c3ccc(O)cc3)c3ccccc32)cc1
[1]
  IC50: 47.2 µM
[2]
  survival at 16 µM: 81%
[3]
  survival at 8 µM: 96.4%
[4]
  survival at 32 µM: 66.1%
